Assays:
[1] = biological target: Bla (Escherichia coli, UniProt P62593); conditions: cited from earlier work
[2] = tested on: Bla-stably-transfected C6 glioma cells; assay: Fluorescence imaging of Bla activity in living cells; format: cell-based; conditions: loaded in Hank's Balanced Salts Solution 25 min, room temperature; excitation 540/25, emission 635/55
Experimental: FIG. 13A illustrates the structures of CR2 and CR2/AM. FIG. 13B presents fluorescence images (40×magnification) of wild type (right) and Bla-stably-transfected (left) C6 glioma cells loaded with CR2/AM in Hank's Balanced Salts Solution for 25 min at room temperature. The excitation filter was set at 540/25 (540 nm peak with a width of 25 nm around the peak). The emission filter was set at 635/55.

Chain of Bla (P62593 24-286 limits assumed): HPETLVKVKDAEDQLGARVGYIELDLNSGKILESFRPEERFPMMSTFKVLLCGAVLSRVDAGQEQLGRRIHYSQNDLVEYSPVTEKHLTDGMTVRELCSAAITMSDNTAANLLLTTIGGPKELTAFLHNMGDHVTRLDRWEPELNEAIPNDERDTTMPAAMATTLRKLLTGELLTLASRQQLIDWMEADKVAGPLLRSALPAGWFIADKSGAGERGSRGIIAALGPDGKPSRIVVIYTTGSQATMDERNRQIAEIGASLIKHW

SMILES	Km ([1]; Zlokarnik et al., Science 1998)	kcat ([1]; Zlokarnik et al., Science 1998)	enhancement of fluorescent emission ([1]; at similar wavelengths (about 460 nm))	imaging of Bla activity in living cells [2]
O=C(CNC(=O)c1cc2cc(Cl)c(O)cc2oc1=O)N[C@@H]1C(=O)N2C(C(=O)O)=C(CSc3ccc4c(c3)C(=O)OC43c4ccc(O)cc4Oc4cc(O)ccc43)CS[C@H]12 [CCF2]	23 µM	29 s⁻¹	20 fold	–
CC(=O)OCOC(=O)C1=C(/C=C\COc2ccc3nc4ccc(=O)cc-4oc3c2)C[S@H](O)[C@@H]2[C@H](NC(=O)Cc3cccs3)C(=O)N12 [CR2/AM]	–	–	–	able to image the Bla activity
